Assay results as given in US4889857A, “Quinolonecarboxylic acid compounds and pharmaceutical use thereof” (Yoshitomi Pharmaceutical Industries, Ltd., priority 1987, dated 1989).
Where two headings read alike, the source gives them in different places.

How the values were obtained:
[1] = system: Staphylococcus aureus FDA 209P*; test: Antibacterial activity in vitro (MIC), horse blood medium; format: cell-based; settings: FDA209P
Procedure: (§1) The antibacterial activities in vitro (minimum inhibitory concentration, MIC, μg/ml) of the test compounds were measured according to the standard method of the Japanese Chemotherapy Society (Chemotherapy, Vol. 23, p.1126, 1974).
(§2) (Inoculum size: 10^6 cells/ml, Organisms with asterisk (*) were
(§3) cultivated in a 10% horse bloodadded medium.)

[2] = system: Enterobacter cloacae IFO 12937; test: Antibacterial activity in vitro (MIC); format: cell-based
[3] = system: Staphylococcus epidermidis ATCC 12983; test: Antibacterial activity in vitro (MIC); format: cell-based
[4] = system: Aerococcus viridans IFO 12219; test: microbe, parasite or virus in culture; settings: IFO12219
[5] = system: S. aureus Smith; test: MIC of the infecting organism (Experiment 2); format: cell-based; settings: Staphylococcus aureus; Table 2; read-out: MIC
Procedure: (§4) Experimental infection was caused by inoculating male mice intraperitoneally with each organism. Each of the test compounds was administered orally to the mice, one hour after the inoculation. The therapeutic effect of each compounds was judged by using a 50% effective dose (ED50) from the survival rate on day 7 after injection by the Probit method as described in Proc. Soc. Exp. Biol. Med., Vol. 57, p.261-264, 1944. The Minimum inhibitory concentrations (MIC) were also measured.

[6] = system: E. coli KC-14; test: MIC of the infecting organism (Experiment 2); format: cell-based; settings: Escherichia coli, KC14
Procedure: as §4

[7] = system: Micrococcus luteus IFO 12708; test: microbe, parasite or virus in culture; settings: IFO12708
[8] = system: Streptocccus pneumoniae Type 1; test: Antibacterial activity in vitro (MIC); format: cell-based
[9] = system: Staphylococcus aureus 308A-1; test: Antibacterial activity in vitro (MIC); format: cell-based
[10] = system: Morganella morganii IFO 3168; test: Antibacterial activity in vitro (MIC); format: cell-based; settings: IFO3168, inoculum 10^6 cells/ml, read-out: MIC
Procedure: as §1, §2, §3

[11] = system: Staphylococcus aureus 1840; test: Antibacterial activity in vitro (MIC); format: cell-based
Procedure: as §1, §2, §3

[12] = system: Escherichia coli T-7; test: Antibacterial activity in vitro (MIC); format: cell-based; settings: T7, inoculum 10^6 cells/ml
Procedure: as §1, §2, §3

[13] = system: Citrobacter freundii IFO 12681; test: Antibacterial activity in vitro (MIC); format: cell-based; settings: IFO12681, inoculum 10^6 cells/ml
Procedure: as §1, §2, §3

[14] = system: Corynebacterium diphtheriae Tronto; test: Antibacterial activity in vitro (MIC); format: cell-based
Procedure: as §1, §2, §3

[15] = system: Escherichia coli NIHJ JC-2; test: Antibacterial activity in vitro (MIC); format: cell-based
Procedure: as §1, §2, §3

[16] = system: Bacillus subtilis PCT 219; test: Antibacterial activity in vitro (MIC); format: cell-based
Procedure: as §1, §2, §3

[17] = system: Staphylococcus aureus FDA 209P; test: Antibacterial activity in vitro (MIC); format: cell-based; settings: FDA209P
Procedure: as §1, §2, §3

[18] = system: Streptococcus sp. IFO 3535; test: Antibacterial activity in vitro (MIC); format: cell-based; settings: IFO3535, inoculum 10^6 cells/ml, 10% horse blood-added medium, read-out: MIC
Procedure: as §1, §2, §3

[19] = system: Proteus mirabilis IFO 3849; test: Antibacterial activity in vitro (MIC); format: cell-based; settings: IFO3849, inoculum 10^6 cells/ml, read-out: MIC
Procedure: as §1, §2, §3

[20] = system: Pediococcus damnosus IFO 3895; test: Antibacterial activity in vitro (MIC); format: cell-based
Procedure: as §1, §2, §3

[21] = system: Proteus vulgaris IFO 3988; test: Antibacterial activity in vitro (MIC); format: cell-based
Procedure: as §1, §2, §3

[22] = system: Streptococcus viridans America; test: Antibacterial activity in vitro (MIC); format: cell-based
Procedure: as §1, §2, §3

[23] = system: Pseudomonas aeruginosa U-31; test: Antibacterial activity in vitro (MIC); format: cell-based; settings: U31, inoculum 10^6 cells/ml, read-out: MIC
Procedure: as §1, §2, §3

[24] = system: Shigella sonnei EW-33; test: Antibacterial activity in vitro (MIC); format: cell-based; settings: EW33, inoculum 10^6 cells/ml
Procedure: as §1, §2, §3

[25] = system: Escherichia coli O-111; test: Antibacterial activity in vitro (MIC); format: cell-based; settings: O111, inoculum 10^6 cells/ml
Procedure: as §1, §2, §3

[26] = system: Staphylococcus epidermidis ATCC 12228; test: Antibacterial activity in vitro (MIC); format: cell-based
Procedure: as §1, §2, §3

[27] = system: Klebsiella pneumoniae DT; test: Antibacterial activity in vitro (MIC); format: cell-based
Procedure: as §1, §2, §3

[28] = system: Shigella flexneri EW-10; test: Antibacterial activity in vitro (MIC); format: cell-based; settings: EW10, inoculum 10^6 cells/ml
Procedure: as §1, §2, §3

[29] = system: Pseudomonas putida IFO 12996; test: Antibacterial activity in vitro (MIC); format: cell-based; settings: IFO12996, inoculum 10^6 cells/ml, read-out: MIC
Procedure: as §1, §2, §3

[30] = system: Acinetobacter calcoaceticus ATCC 13006; test: Antibacterial activity in vitro (MIC); format: cell-based
Procedure: as §1, §2, §3

[31] = system: Shigella typhosa Boxhill-58; test: Antibacterial activity in vitro (MIC); format: cell-based
Procedure: as §1, §2, §3

[32] = system: Streptococcus lactis IFO 12546; test: Antibacterial activity in vitro (MIC); format: cell-based; settings: Lactococcus lactis, IFO12546; inoculum 10^6 cells/ml; 10% horse blood-added medium; read-out: MIC
Procedure: as §1, §2, §3

[33] = system: Serratia marcescens IFO 12648; test: Antibacterial activity in vitro (MIC); format: cell-based
Procedure: as §1, §2, §3

[34] = system: Pseudomonas cepacia 739; test: Antibacterial activity in vitro (MIC); format: cell-based; settings: Burkholderia cepacia, inoculum 10^6 cells/ml
[35] = system: Enterococcus faecalis LS-101; test: Antibacterial activity in vitro (MIC); format: cell-based
[36] = system: Alcaligenes faecalis NCTC 415; test: Antibacterial activity in vitro (MIC); format: cell-based; settings: NCTC415, inoculum 10^6 cells/ml
[37] = system: Streptococcus pyogenes S-8; test: Antibacterial activity in vitro (MIC); format: cell-based
[38] = system: Streptococcus pyogenes E-14; test: Antibacterial activity in vitro (MIC); format: cell-based
[39] = inoculum 10^6 cells/ml, 10% horse blood-added medium, read-out: MIC
[40] = inoculum 10^6 cells/ml, read-out: MIC

Measured: MIC

CNCC1CN(c2c(F)cc3c(=O)c(C(=O)O)cn(C4CC4)c3c2F)CCO1 (stereo not shown) [Compound A, 1-cyclopropyl-6,8-difluoro-1,4,-dihydro-7-[2-(methylaminomethyl)morpholino]-4-oxoquinoline-3-carboxylic acid]
0.05 µg/mL: [3]; ATCC12983 | [6]; Table 2, read-out: MIC | [8] | [9]; 308A1 | [26]; ATCC12228 | [31]
0.2 µg/mL: [13] | [22] | [25] | [27]
0.1 µg/mL: [4] | [11] | [12] | [15]; NIHJJC2 | [35]; LS101 | [37]; S8 | [38]; E14
0.39 µg/mL: [7] | [20]; IFO3895 | [30]; ATCC13006
1.56 µg/mL: [10] | [18] | [19] | [23] | [29] | [32] | [34] | [36]
0.78 µg/mL: [2]; IFO12937 | [21]; IFO3988 | [33]; IFO12648
0.012 µg/mL: [5] | [16]; PCT219, inoculum 10^6 cells/ml, read-out: MIC
0.025 µg/mL: [1] | [14] | [17] | [24] | [28]

CC1COc2c(N3CCN(C)CC3)c(F)cc3c(=O)c(C(=O)O)cn1c23 (stereo not shown) [OFLX, 9-fluoro-3-methyl-10-(4-methyl-1-piperazinyl)-7-oxo-2,3-dihydro-7H-pyrido[1,2,3-de][1,4]-benzoxazine-6-carboxylic acid]
0.39 µg/mL: [2]; IFO12937, inoculum 10^6 cells/ml, read-out: MIC | [3]; ATCC12983, inoculum 10^6 cells/ml, 10% horse blood-added medium, read-out: MIC | [9]; 308A1, inoculum 10^6 cells/ml, read-out: MIC | [19]
3.13 µg/mL: [4] | [7] | [18]
1.56 µg/mL: [11]; [40] | [22]; [39] | [29]
0.025 µg/mL: [6] | [24] | [31]
6.25 µg/mL: [32]
0.1 µg/mL: [10] | [15]; NIHJJC2, inoculum 10^6 cells/ml, read-out: MIC | [21]; IFO3988, inoculum 10^6 cells/ml, read-out: MIC | [27]; [40]
0.2 µg/mL: [1]; [39] | [5] | [14]; [39] | [17]; [40] | [20]; IFO3895, inoculum 10^6 cells/ml, 10% horse blood-added medium, read-out: MIC | [26]; ATCC12228, inoculum 10^6 cells/ml, 10% horse blood-added medium, read-out: MIC | [30]; ATCC13006, inoculum 10^6 cells/ml, read-out: MIC | [33]; IFO12648, inoculum 10^6 cells/ml, read-out: MIC
0.78 µg/mL: [8]; [39] | [23] | [34] | [35]; LS101, inoculum 10^6 cells/ml, 10% horse blood-added medium, read-out: MIC | [36] | [37]; S8, inoculum 10^6 cells/ml, 10% horse blood-added medium, read-out: MIC | [38]; E14, inoculum 10^6 cells/ml, 10% horse blood-added medium, read-out: MIC
0.05 µg/mL: [12] | [13] | [16]; PCT219 | [25] | [28]
